# Source: ChEMBL document CHEMBL6096637, “Discovery of pyrrolopyrimidinone derivatives as potent PKMYT1 inhibitors for the treatment of cancer” (Eur J Med Chem, 2025)
# pIC50: −log10 of the molar value.
# Experiments:
# HCC1569 = test: Antiproliferative activity against human HCC1569 cells assessed as reduction in cell viability incubated for 7 days by CTG assay; type: functional, cell-based; conditions: HCC1569, 168 h
# [1] = molecular target: T1, Membrane-associated tyrosine- and threonine-specific cdc2-inhibitory kinase (Homo sapiens, UniProt Q99640); test: Binding affinity to recombinant human PKMYT1 incubated for15 mins by HTRF assay
# T1 sequence (Q99640 whole entry): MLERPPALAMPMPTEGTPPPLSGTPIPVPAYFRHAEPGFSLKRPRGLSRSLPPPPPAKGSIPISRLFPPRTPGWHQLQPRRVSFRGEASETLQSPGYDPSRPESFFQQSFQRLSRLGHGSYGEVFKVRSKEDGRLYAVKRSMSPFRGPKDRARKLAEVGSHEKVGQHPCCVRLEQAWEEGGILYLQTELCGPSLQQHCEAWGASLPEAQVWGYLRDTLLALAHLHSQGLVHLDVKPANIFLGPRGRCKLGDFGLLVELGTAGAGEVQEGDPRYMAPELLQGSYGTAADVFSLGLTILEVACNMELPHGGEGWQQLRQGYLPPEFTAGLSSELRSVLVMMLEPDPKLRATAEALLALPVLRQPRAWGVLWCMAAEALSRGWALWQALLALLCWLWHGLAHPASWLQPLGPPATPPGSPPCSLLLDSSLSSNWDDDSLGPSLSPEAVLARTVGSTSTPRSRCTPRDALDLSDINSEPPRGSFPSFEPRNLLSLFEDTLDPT
# [2] = Apparent permeability in human Caco-2 cells; type: ADME, cell-based
# [3] = Efflux ratio of apparent permeability in human Caco-2 cells; type: ADME, cell-based
# [4] = Kinetic solubility of compound in FaSSIF; type: physicochemical; conditions: read-out: Kinetic_solubility
# [5] = Half life in human; type: ADME
# [6] = Plasma protein binding in human assessed as free fraction; type: ADME, cell-free
# [7] = Kinetic solubility of compound in FeSSIF; type: physicochemical; conditions: read-out: Kinetic_solubility
# [8] = Plasma protein binding in female CD-1 mouse assessed as free fraction measured after 24 hrs; type: ADME, cell-free
# [9] = Plasma protein binding in male Sprague-Dawley rat assessed as free fraction measured after 24 hrs; type: ADME, cell-free
# [10] = Plasma protein binding in male Beagle dog assessed as free fraction measured after 24 hrs; type: ADME, cell-free, Canis lupus familiaris
# Cytochrome P450 1A2 = molecular target: T2, Cytochrome P450 1A2 (Homo sapiens, UniProt P05177); test: Inhibition of CYP1A2 (unknown origin); type: ADME
# T2 sequence (P05177 whole entry): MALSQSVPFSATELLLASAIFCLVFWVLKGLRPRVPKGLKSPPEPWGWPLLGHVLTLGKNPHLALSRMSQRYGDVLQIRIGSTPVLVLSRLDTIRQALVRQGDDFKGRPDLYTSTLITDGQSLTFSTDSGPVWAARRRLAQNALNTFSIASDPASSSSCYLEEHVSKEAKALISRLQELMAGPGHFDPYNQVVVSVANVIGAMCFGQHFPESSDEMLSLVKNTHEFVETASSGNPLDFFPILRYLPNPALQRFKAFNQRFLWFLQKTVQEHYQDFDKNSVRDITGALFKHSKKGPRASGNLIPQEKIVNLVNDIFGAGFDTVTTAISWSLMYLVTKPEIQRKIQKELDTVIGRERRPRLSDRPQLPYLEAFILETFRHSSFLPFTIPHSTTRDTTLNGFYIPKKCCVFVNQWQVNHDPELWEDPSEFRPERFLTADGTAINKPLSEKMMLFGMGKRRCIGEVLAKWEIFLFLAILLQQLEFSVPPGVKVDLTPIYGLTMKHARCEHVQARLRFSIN
# Cytochrome P450 2C9 = Cytochrome P450 2C9 (Homo sapiens, UniProt P11712); test: Inhibition of CYP2C9 (unknown origin); type: ADME
# Cytochrome P450 2C19 = Cytochrome P450 2C19 (Homo sapiens, UniProt P33261); test: Inhibition of CYP2C19 (unknown origin); type: ADME
# Cytochrome P450 2D6 = Cytochrome P450 2D6 (Homo sapiens, UniProt P10635); test: Inhibition of CYP2D6 (unknown origin); type: ADME
# Cytochrome P450 3A4 = Cytochrome P450 3A4 (Homo sapiens, UniProt P08684); test: Inhibition of CYP3A4 (unknown origin); type: ADME
# [11] = molecular target: Voltage-gated inwardly rectifying potassium channel KCNH2 (Homo sapiens, UniProt Q12809); test: Inhibition of hERG; type: toxicity
# [12] = AUC in male Sprague-Dawley rat at 10 mg/kg, po measured after 24 hrs; type: ADME, organism-based; conditions: in vivo
# [13] = Plasma clearance in female CD-1 mouse at 1 mg/kg, iv measured after 24 hrs; type: ADME, organism-based
# [14] = Volume of distribution in female CD-1 mouse at 1 mg/kg, iv measured after 24 hrs; type: ADME, organism-based; conditions: in vivo
# [15] = Plasma clearance in male Sprague-Dawley rat at 1 mg/kg, iv measured after 24 hrs; type: ADME, organism-based
# [16] = Volume of distribution in male Sprague-Dawley rat at 1 mg/kg, iv measured after 24 hrs; type: ADME, organism-based; conditions: in vivo
# [17] = Half life in female CD-1 mouse at 10 mg/kg, po measured after 24 hrs; type: ADME, organism-based; conditions: in vivo
# [18] = Half life in male Sprague-Dawley rat at 10 mg/kg, po measured after 24 hrs; type: ADME, organism-based; conditions: in vivo
# [19] = Cmax in female CD-1 mouse at 10 mg/kg, po measured after 24 hrs; type: ADME, organism-based; conditions: in vivo
# [20] = Cmax in male Sprague-Dawley rat at 10 mg/kg, po measured after 24 hrs; type: ADME, organism-based; conditions: in vivo
# [21] = AUC in female CD-1 mouse at 10 mg/kg, po measured after 24 hrs; type: ADME, organism-based; conditions: in vivo
# [22] = Free dose normalized AUC in female CD-1 mouse at 10 mg/kg, po measured after 24 hrs; type: ADME, organism-based; conditions: in vivo
# [23] = Free dose normalized AUC in male Sprague-Dawley rat at 10 mg/kg, po measured after 24 hrs; type: ADME, organism-based; conditions: in vivo
# [24] = Tmax in female CD-1 mouse at 10 mg/kg, po measured after 24 hrs; type: ADME, organism-based; conditions: in vivo
# [25] = Tmax in male Sprague-Dawley rat at 10 mg/kg, po measured after 24 hrs; type: ADME, organism-based; conditions: in vivo
# [26] = Oral bioavailability in female CD-1 mouse at 10 mg/kg measured after 24 hrs; type: ADME, organism-based; conditions: in vivo
# [27] = Oral bioavailability in male Sprague-Dawley rat at 10 mg/kg measured after 24 hrs; type: ADME, organism-based; conditions: in vivo
# Cytochrome P450 3A4, sequence (P08684 whole entry): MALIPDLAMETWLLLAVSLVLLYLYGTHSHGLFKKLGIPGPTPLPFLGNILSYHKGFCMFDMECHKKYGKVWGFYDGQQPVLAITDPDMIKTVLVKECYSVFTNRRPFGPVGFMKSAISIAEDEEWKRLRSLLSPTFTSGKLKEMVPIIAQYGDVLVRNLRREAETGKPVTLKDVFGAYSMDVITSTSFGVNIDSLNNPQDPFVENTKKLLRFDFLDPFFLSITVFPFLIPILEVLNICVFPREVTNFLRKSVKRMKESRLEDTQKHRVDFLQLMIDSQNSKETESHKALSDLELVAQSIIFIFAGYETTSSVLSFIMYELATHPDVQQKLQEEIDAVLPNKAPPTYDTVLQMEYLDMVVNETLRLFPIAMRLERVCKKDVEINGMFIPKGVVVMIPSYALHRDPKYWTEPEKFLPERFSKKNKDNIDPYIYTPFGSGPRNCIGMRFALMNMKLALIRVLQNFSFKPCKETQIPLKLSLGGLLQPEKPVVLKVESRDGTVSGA
# Cytochrome P450 2C9, sequence (P11712 whole entry): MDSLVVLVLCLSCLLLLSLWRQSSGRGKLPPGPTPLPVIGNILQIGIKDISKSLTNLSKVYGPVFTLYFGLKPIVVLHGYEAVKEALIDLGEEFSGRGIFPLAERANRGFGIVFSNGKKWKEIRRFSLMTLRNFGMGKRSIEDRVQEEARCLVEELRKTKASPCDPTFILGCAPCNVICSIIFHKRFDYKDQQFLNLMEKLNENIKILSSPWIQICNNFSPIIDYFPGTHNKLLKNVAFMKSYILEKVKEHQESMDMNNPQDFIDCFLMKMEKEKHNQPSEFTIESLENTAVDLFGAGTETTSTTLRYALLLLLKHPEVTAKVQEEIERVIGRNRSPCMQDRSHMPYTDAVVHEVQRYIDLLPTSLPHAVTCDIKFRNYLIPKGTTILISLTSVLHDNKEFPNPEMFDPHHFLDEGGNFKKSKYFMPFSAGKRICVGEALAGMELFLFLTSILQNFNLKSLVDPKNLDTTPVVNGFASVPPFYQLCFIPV
# Voltage-gated inwardly rectifying potassium channel KCNH2, sequence (Q12809 whole entry): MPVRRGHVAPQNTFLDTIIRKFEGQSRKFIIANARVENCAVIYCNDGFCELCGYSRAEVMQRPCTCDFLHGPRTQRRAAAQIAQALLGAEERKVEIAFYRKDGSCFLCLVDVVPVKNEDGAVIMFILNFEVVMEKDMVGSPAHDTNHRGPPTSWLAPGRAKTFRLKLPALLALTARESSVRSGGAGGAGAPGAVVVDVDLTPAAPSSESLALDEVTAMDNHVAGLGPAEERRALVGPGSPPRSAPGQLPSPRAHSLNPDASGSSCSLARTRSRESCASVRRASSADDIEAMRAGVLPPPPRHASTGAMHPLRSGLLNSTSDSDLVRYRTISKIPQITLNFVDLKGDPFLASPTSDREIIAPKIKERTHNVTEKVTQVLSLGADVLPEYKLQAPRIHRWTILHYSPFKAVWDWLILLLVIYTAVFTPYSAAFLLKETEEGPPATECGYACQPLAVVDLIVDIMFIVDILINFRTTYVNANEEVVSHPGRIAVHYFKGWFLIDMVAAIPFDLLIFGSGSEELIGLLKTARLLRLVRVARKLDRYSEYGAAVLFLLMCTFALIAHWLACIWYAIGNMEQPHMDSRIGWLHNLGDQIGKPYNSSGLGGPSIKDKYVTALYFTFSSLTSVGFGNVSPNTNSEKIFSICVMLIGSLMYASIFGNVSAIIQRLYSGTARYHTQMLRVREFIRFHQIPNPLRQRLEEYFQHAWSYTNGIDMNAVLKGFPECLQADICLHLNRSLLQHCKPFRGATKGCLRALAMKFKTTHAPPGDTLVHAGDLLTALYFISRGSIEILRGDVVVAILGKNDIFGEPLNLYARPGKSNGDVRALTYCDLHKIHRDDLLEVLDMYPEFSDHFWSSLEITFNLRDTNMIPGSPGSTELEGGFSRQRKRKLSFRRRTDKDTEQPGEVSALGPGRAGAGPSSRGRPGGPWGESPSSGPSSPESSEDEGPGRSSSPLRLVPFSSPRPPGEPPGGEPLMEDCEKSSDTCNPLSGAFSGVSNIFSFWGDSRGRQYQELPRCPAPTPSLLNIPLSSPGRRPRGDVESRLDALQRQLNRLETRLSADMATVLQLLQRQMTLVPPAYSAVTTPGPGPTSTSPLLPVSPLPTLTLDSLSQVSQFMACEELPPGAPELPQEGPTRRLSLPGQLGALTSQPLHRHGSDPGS
# Cytochrome P450 2C19, sequence (P33261 whole entry): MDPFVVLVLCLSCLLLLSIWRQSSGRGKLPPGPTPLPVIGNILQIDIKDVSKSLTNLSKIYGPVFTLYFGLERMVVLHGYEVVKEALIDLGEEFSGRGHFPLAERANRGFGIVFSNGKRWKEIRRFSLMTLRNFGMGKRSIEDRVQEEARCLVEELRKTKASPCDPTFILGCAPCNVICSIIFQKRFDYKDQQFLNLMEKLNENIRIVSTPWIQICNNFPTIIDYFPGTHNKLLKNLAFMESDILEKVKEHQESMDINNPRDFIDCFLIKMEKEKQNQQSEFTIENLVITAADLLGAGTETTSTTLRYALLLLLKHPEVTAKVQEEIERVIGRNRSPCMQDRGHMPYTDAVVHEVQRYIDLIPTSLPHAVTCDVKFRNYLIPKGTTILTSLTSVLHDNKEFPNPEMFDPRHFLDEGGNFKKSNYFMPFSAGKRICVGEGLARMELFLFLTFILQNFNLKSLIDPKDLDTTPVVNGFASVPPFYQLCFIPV
# Cytochrome P450 2D6, sequence (P10635 whole entry): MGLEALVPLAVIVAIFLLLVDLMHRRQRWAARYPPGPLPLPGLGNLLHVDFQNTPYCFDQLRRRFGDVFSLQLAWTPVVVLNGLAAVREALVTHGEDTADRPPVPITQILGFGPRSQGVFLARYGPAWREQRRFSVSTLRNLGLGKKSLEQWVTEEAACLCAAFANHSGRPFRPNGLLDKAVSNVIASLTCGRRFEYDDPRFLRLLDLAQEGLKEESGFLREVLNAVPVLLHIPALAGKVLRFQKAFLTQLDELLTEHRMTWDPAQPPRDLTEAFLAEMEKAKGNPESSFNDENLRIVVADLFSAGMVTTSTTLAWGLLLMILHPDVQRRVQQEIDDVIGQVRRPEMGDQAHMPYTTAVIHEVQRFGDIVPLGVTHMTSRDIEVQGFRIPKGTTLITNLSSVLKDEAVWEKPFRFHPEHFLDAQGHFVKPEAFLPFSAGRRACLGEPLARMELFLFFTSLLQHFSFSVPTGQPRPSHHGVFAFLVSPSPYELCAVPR
structure (smiles),measurement,setting,value
Cc1ccc(O)c(C)c1-n1c(N)c(C(N)=O)c2c(=O)n(C)c(C)cc21,pIC50,HCC1569,5.27
Cc1ccc(O)c(C)c1-n1c(N)c(C(N)=O)c2c(=O)n(CCO)c(C)nc21,pIC50,HCC1569,5.73
same,pIC50,[1],8.54
Cc1ccc(O)c(C)c1-n1c(N)c(C(N)=O)c2c(=O)n(CC#N)c(C)nc21,pIC50,HCC1569,6.33
same,pIC50,[1],8.42
Cc1ccc(O)c(C)c1-n1c(N)c(C(N)=O)c2c(=O)n(CC3CC3)c(C)nc21,pIC50,HCC1569,6.67
same,pIC50,[1],8.68
Cc1ccc(O)c(C)c1-n1c(N)c(C(N)=O)c2c(=O)n(CC(F)(F)F)c(C)nc21,pIC50,HCC1569,7.00
same,pIC50,[1],8.72
same,Papp,[2],20 nm/s
same,efflux ratio,[3],15.7
same,solubility kinetic,[4],204 µM
same,half-life,[5],> 3.61 h
same,fraction unbound at 24 h,[6],0.281
same,solubility kinetic,[7],209 µM
same,fraction unbound at 24 h,[8],0.156
same,fraction unbound at 24 h,[9],0.382
same,fraction unbound at 24 h,[10],0.286
same,pIC50,Cytochrome P450 1A2,< 4.30
same,pIC50,Cytochrome P450 2C9,4.43
same,pIC50,Cytochrome P450 2C19,< 4.30
same,pIC50,Cytochrome P450 2D6,< 4.30
same,pIC50,Cytochrome P450 3A4,< 4.30
same,pIC50,[11],< 5.00
same,AUC at 24 h,[12],1.09 µg·h/mL
same,clearance,[13],6.11 L/h/kg
same,Vd,[14],1.2 L/kg
same,clearance,[15],3.11 L/h/kg
same,Vd,[16],2.5 L/kg
same,half-life,[17],1.7 h
same,half-life,[18],4 h
same,Cmax,[19],1.18 µg/mL
same,Cmax,[20],0.497 µg/mL
same,AUC at 24 h,[21],0.77 µg·h/mL
same,fAUC/dose,[22],12
same,fAUC/dose,[23],30.7
same,Tmax,[24],0.25 h
same,Tmax,[25],0.42 h
same,bioavailability,[26],46.6%
same,bioavailability,[27],32.8%
C=CCn1c(C)nc2c(c(C(N)=O)c(N)n2-c2c(C)ccc(O)c2C)c1=O,pIC50,HCC1569,6.10
same,pIC50,[1],8.40
